Source: patent US20240270821A1, “GIP/GLP1/GCG TRI-RECEPTOR AGONISTS AND USES THEREOF” (priority 2023, published 2024)
Where two headings read alike, the source gives them in different places. Starred links: 1 amine or outer side, 2 acyl side, 3 side chain; linkers in the order of their positions; H or OH if unused. Non-standard residues stand in square brackets, D forms with d. Groups on a side chain read outwards from the residue. No end group written: not given here. *: point of attachment. C20 diacid = O=C(O)CCCCCCCCCCCCCCCCCCC(=O)*; C18 diacid = O=C(O)CCCCCCCCCCCCCCCCC(=O)*; Phe(4-CN) = N#Cc1ccc(C[C@H](N)C(=O)O)cc1; αMePhe(2-F) = C[C@](N)(Cc1ccccc1F)C(=O)O; γGlu = O=C(O)[C@H](CCC(=O)[*:2])N[*:1]; αMe4Pal = C[C@](N)(Cc1ccncc1)C(=O)O; αMeY = C[C@](N)(Cc1ccc(O)cc1)C(=O)O; 4Pal = N[C@@H](Cc1ccncc1)C(=O)O; αMeL = CC(C)C[C@](C)(N)C(=O)O; αMeS = C[C@](N)(CO)C(=O)O; Orn = NCCC[C@H](N)C(=O)O; AEEA = NCCOCCOCC(=O)O; Aib = CC(C)(N)C(=O)O

What was measured:
Assay type in all cases: cell-based
hGIPR [1] = target: T1, hGIPR (Homo sapiens, UniProt P48546); assay: Functional cAMP activity in the presence of 1% HSA; settings: read-out: cAMP Rel EC50, hGIPR
T1 sequence (P48546 22-466): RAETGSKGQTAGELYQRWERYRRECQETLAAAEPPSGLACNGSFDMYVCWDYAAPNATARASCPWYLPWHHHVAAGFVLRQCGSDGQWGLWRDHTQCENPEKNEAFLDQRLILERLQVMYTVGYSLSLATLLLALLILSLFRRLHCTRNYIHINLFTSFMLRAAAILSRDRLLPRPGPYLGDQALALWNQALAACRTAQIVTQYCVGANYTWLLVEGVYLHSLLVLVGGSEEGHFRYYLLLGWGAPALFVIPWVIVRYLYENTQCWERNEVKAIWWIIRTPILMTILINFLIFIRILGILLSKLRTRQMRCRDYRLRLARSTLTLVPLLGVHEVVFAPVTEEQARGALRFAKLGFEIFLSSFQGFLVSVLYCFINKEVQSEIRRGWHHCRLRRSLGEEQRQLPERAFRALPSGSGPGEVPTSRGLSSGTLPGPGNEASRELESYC

hGLP-1R [2] = target: T2, hGLP-1R (Homo sapiens, UniProt P43220); assay: Functional cAMP activity in the presence of 1% HSA; settings: read-out: cAMP Rel EC50, hGLP-1R
human GcgR = human GcgR (Homo sapiens, UniProt P47871); assay: Functional cAMP activity in the presence of 1% HSA; settings: read-out: cAMP Rel EC50, hGcgR
hGIPR [3] = target: T1, hGIPR; assay: Functional cAMP activation in the presence of 0.1% casein (no HSA); settings: read-out: Relative cAMP EC50, hGIPR;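 as to Relative cAMP EC50, hGIPR: intracellular cAMP rise after 30 min at 37 °C read by HTRF against a standard curve, scaled between buffer alone (0%) and top control ligand concentration (100%), four-parameter fit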;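 as to Relative cAMP EC50, hGLP-1R: intracellular cAMP rise after 30 min at 37 °C read by HTRF, normalized between buffer only (0%) and maximal control ligand (100%), four-parameter variable-slope fit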;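 as to Relative cAMP EC50, hGcgR: intracellular cAMP rise after 30 min at 37 °C, read by HTRF against a cAMP standard curve, scaled from buffer only (0%) to maximal control ligand response (100%)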
hGLP-1R [4] = target: T2, hGLP-1R; assay: as above; settings: read-out: Relative cAMP EC50, hGLP-1R
hGcgR = hGcgR (Homo sapiens, UniProt P47871); assay: as above; settings: read-out: Relative cAMP EC50, hGcgR;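 also: intracellular cAMP rise after 30 min at 37 °C, read by HTRF against a cAMP standard curve, scaled from buffer only (0%) to maximal control ligand response (100%)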
[5] = in the presence of 0.1% casein (no HSA), geometric mean

Chain of human GcgR (P47871 26-477): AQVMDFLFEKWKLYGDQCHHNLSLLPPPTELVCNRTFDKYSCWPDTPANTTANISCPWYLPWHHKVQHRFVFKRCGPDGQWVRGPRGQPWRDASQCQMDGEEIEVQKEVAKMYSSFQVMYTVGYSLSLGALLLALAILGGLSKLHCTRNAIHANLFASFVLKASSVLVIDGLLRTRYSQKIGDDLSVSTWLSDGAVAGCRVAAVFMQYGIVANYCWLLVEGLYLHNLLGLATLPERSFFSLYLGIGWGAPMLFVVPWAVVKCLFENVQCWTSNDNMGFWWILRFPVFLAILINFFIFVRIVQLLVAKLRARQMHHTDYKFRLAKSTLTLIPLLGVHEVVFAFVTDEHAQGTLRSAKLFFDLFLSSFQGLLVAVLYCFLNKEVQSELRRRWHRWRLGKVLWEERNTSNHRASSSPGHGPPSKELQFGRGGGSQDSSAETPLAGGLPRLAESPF
Chain of hGcgR (P47871 26-477): as above
T2 sequence (P43220 24-463): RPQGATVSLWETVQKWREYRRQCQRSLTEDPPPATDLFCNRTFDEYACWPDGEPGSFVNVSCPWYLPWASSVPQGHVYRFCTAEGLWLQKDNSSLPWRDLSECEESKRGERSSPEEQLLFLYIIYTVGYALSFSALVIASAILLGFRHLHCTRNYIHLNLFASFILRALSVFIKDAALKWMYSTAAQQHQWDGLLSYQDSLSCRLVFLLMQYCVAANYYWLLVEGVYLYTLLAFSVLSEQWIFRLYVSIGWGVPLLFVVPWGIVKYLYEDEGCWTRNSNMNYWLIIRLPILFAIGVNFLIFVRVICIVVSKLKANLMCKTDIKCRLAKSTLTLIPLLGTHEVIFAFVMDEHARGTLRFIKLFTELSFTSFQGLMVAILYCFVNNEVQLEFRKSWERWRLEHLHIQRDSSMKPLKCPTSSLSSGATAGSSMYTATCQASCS

| Compound | EC50 (hGIPR [1]) [nM] | EC50 (hGLP-1R [2]) [nM] | EC50 (human GcgR) [nM] | EC50 (hGIPR [3]) [nM] | EC50 (hGLP-1R [4]) [nM] | EC50 (hGcgR) [nM] | EC50 (hGIPR [3]; [5]) [nM] | EC50 (hGLP-1R [4]; [5]) [nM] | EC50 (hGcgR; [5]) [nM] |
| --- | --- | --- | --- | --- | --- | --- | --- | --- | --- |
| Y[Aib]QGT[αMePhe(2-F)]TSD[4Pal]SI[αMeL]LD[Orn]K([AEEA-γGlu-C18 diacid])AQ[αMe4Pal]EFI[dE][αMeY]LIEGGPSSGEPPPSGS-NH2 [Example 644] | 0.601 | 34.3 | 626 | 0.00649 | 0.309 | 5.91 | – | – | – |
| Y[Aib]QGTFTSD[4Pal]SQ[αMeL]LDKK([dE-dE-γGlu-C18 diacid])AQ[αMe4Pal]AFIEYLIE[Aib]GPSSGAPPPSGSE-NH2 [Example 925] | 23 | 708 | 2500 | – | – | – | 0.147 | 4.19 | 8.19 |
| Y[Aib]QGTFTSD[4Pal]SQ[αMeL]LD[Orn]K([dE-γGlu-C18 diacid])AQ[αMe4Pal]AFIEYLIA[Aib]GPSSGEPPPSGSEE-NH2 [Example 1101] | 6.31 | 246 | 827 | – | – | – | 0.0592 | 1.75 | 4.72 |
| H-Y[Aib]QGTFTSD[4Pal][αMeS]Q[αMeL]LD[Orn]K([dE-γGlu-C18 diacid])AQ[αMe4Pal]QFIE[αMeY]LIE[Aib]GPSSGAPPPSGGGE-NH2 [Example 1187] | 7.11 | 154 | 370 | – | – | – | 0.0648 | 1.06 | 1.81 |
| Y[Aib]QGT[αMePhe(2-F)]TSD[4Pal][αMeS]ILLD[Orn]K([γGlu-γGlu-C18 diacid])AQ[Aib][Orn]FI[dE]YLIEGGPSSGEPPPEGEEE-NH2 [Example 606] | 5.69 | 53.1 | 474 | 0.17 | 0.786 | 5.01 | – | – | – |
| H-Y[Aib]QGT[αMePhe(2-F)]TSD[4Pal][αMeS]I[αMeL]LD[Orn]K([γGlu-γGlu-C18 diacid])AQ[Aib][Orn]FI[dE][αMeY]LQEGGPSSGEPPPSGTEEE-NH2 [Example 573] | 3.15 | 31.6 | 388 | 0.0342 | 0.416 | 4.02 | – | – | – |
| H-Y[Aib]QGT[αMePhe(2-F)]TSD[4Pal]SI[αMeL]LDKK([γGlu-γGlu-C18 diacid])AQ[Aib]AFIEYLEEGGPSSGEPPPSGTGE-NH2 [Example 624] | 1.17 | 63.4 | 808 | 0.0222 | 0.95 | 8.42 | – | – | – |
| H-Y[Aib]QGT[αMePhe(2-F)]TSD[4Pal][αMeS]I[αMeL]LD[Orn]K([γGlu-γGlu-C18 diacid])AQ[αMe4Pal]EFI[dE][αMeY]LIEGGPSSGEPPPSGS-NH2 [Example 715] | 0.51 | 19.7 | 126 | 0.00644 | 0.267 | 1 | – | – | – |
| H-Y[Aib]QGTFTSD[4Pal]SQ[αMeL]LDKK([γGlu-γGlu-C18 diacid])AQ[αMe4Pal]AFIE[αMe4Pal]LIE[Aib]GPSSGEPPPSGEEE-NH2 [Example 1124] | 12 | 304 | 400 | – | – | – | 0.187 | 10.1 | 6.97 |
| H-Y[Aib]QGT[αMePhe(2-F)]TSD[4Pal][αMeS]I[αMeL]LD[Orn]K([γGlu-γGlu-C18 diacid])AQ[αMe4Pal]EFI[dE][αMeY]LVEGGPSSGEPPPSGSE-NH2 [Example 1163] | 0.721 | 35.4 | 163 | – | – | – | 0.00951 | 0.449 | 1.75 |
| H-Y[Aib]QGT[αMePhe(2-F)]TSD[4Pal][αMeS]I[αMeL]LD[Orn]K([γGlu-γGlu-C18 diacid])AQ[Aib][Orn]FI[dE][αMeY]LSEGGPSSGEPPPSGQEE-NH2 [Example 570] | 13.6 | 95.1 | 648 | 0.186 | 1.03 | 5.88 | – | – | – |
| Y[Aib]QGT[αMePhe(2-F)]TSD[4Pal][αMeS]I[αMeL]LD[Orn]K([AEEA-γGlu-C18 diacid])AQ[αMe4Pal]EFI[dE][αMeY]LIEGGPSSGEPPPESE-NH2 [Example 1147] | 0.831 | 45.4 | 167 | – | – | – | 0.00753 | 0.347 | 1.17 |
| CC[C@H](C)[C@H](NC(=O)[C@H](CC(C)C)NC(=O)[C@](C)(Cc1ccc(O)cc1)NC(=O)[C@@H](CCC(=O)O)NC(=O)[C@@H](NC(=O)[C@H](Cc1ccccc1)NC(=O)[C@H](CCC(=O)O)NC(=O)C(C)(C)NC(=O)[C@H](C)NC(=O)[C@H](C)NC(=O)[C@H](CCCCNC(=O)COCCOCCNC(=O)CC[C@H](NC(=O)CCCCCCCCCCCCCCCCC(=O)O)C(=O)O)NC(=O)[C@H](CCCN)NC(=O)[C@H](CC(=O)O)NC(=O)[C@H](CC(C)C)NC(=O)[C@](C)(CC(C)C)NC(=O)[C@@H](NC(=O)[C@](C)(CO)NC(=O)[C@H](Cc1ccncc1)NC(=O)[C@H](CC(=O)O)NC(=O)[C@H](CO)NC(=O)[C@@H](NC(=O)[C@](C)(Cc1ccccc1F)NC(=O)[C@@H](NC(=O)CNC(=O)[C@H](CCC(N)=O)NC(=O)C(C)(C)NC(=O)[C@@H](N)Cc1ccc(O)cc1)[C@@H](C)O)[C@@H](C)O)[C@@H](C)CC)[C@@H](C)CC)C(=O)N[C@@H](CCC(=O)O)C(=O)NCC(=O)NCC(=O)N1CCC[C@H]1C(=O)N[C@@H](CO)C(=O)N[C@@H](CO)C(=O)NCC(=O)N[C@@H](C)C(=O)N1CCC[C@H]1C(=O)N1CCC[C@H]1C(=O)N1CCC[C@H]1C(=O)N[C@@H](CO)C(=O)NCC(=O)N[C@H](C(=O)NCC(=O)N[C@@H](CCC(=O)O)C(N)=O)[C@@H](C)O [Example 689] | 0.951 | 25.1 | 182 | 0.0104 | 0.214 | 1.81 | – | – | – |
| H-Y[Aib]QGT[αMePhe(2-F)]TSD[4Pal][αMeS]I[αMeL]LD[Orn]K([AEEA-γGlu-C18 diacid])AQ[αMe4Pal]EFI[dE][αMeY]LVEGGPSSGAPPPTGE-NH2 [Example 1152] | 1.21 | 43.8 | 287 | – | – | – | 0.0101 | 0.371 | 2.32 |
| H-Y[Aib]QGT[αMePhe(2-F)]TSD[Phe(4-CN)]SKLLDKIAQK([AEEA-γGlu-C20 diacid])AFIEYLIEGGPSSGEPPPSGS-NH2 [Example 364] | 101 | 260 | 3190 | – | – | – | 0.457 | 1.1 | 10.2 |
| H-Y[Aib]QGTFTSD[4Pal]S[Orn][αMeL]LD[Orn]K([γGlu-γGlu-C18 diacid])AQ[αMe4Pal]AFIEYLIAGGPSSGEPPPSGE-NH2 [Example 983] | 19.4 | 207 | 576 | – | – | – | 0.289 | 2.35 | 4.75 |
| H-Y[Aib]QGT[αMePhe(2-F)]TSD[4Pal][αMeS]I[αMeL]LD[Orn]K([AEEA-γGlu-C18 diacid])AQ[αMe4Pal]EFI[dE][αMeY]LVEGGPSSGAPPPSGE-NH2 [Example 749] | 1.47 | 33.9 | 28 | 0.00718 | 0.293 | 2.21 | – | – | – |
| H-Y[Aib]QGTFTSD[4Pal]SQ[αMeL]LDKK([γGlu-γGlu-C18 diacid])AQ[αMe4Pal]AFIEYLIE[Aib]GPSSGAPPPSGE-NH2 [Example 882] | 26.6 | 361 | 559 | – | – | – | 0.129 | 2.33 | 2.73 |
| H-Y[Aib]QGTFTSD[4Pal]SQ[αMeL]LDKK([γGlu-γGlu-C18 diacid])AQ[αMe4Pal]AFIEYLIE[Aib]GPSSGAPPPSGSEE-NH2 [Example 899] | 15.6 | 592 | 814 | – | – | – | 0.133 | 4.11 | 4.4 |
